Entries after “also recorded” stand apart in the source; their conditions may differ.
Tests used:
[1] = test system: sea urchin embryo system; test: Sea urchin embryo system
[2] = test system: B16 melanoma; test: Cancer cell growth inhibition assay (MTT); format: cell-based, murine
Method: (§1) Exponentially growing cells in 0.1 ml medium were seeded on Day 0 in 96-well microtiter plates. On Day 1, 0.1-ml aliquots of medium containing graded concentrations test agent were added in duplicate to the cell plates. After incubation at 37° C. in a humidified incubator, the plates were centrifuged briefly (1-2 min at 1000 rpm), and 100 μl of the growth medium was removed. Cell cultures were incubated with 50 μl of 3-(4,5-dimethylthiazyl-2-yl)-2,5-diphenyltetrazolium bromide MTT, 1 mg/ml in Dubecco's PBS for 4 h at 37° C. The resulting purple formazan precipitate was solubilized with 200 μl of 0.4 N HCl in isopropyl alcohol. Absorbance was quantitated using a Bio-Rad Model 3550 microplate reader at a test wavelength of 570 nm and a reference wavelength of 630 nm. Absorbance values were transferred to a 486 personal computer, and the IC50 values were determined using the computer program EZ-ED50 (Chen et al., 1993).

[3] = test system: supercoiled pHOT1 DNA; test: DNA unwinding assay; format: biochemical; conditions: concentration shifting topoisomers to the middle position between relaxed and supercoiled bands
Method: A 22 μl mixture of 0.25 μg of supercoiled pHOT1 DNA, 5 units of topoisomerase I in topoisomerase I buffer (provided with the kit) was incubated at 37° C. for 30 min. Two μl of various concentrations of drug was added, and the incubation was continued for another 30 min. The reactions were terminated by addition of SDS to 1%. Proteinase K was added to the reaction mixtures to ca. 50 μg/ml, and the reaction mixtures were incubated for 15-20 min at 56° C. After adding 0.1 volume of 10×gel loading buffer, the reaction mixtures were extracted with an equal volume of CIA (Chloroform:isoamyl Alcohol; 24:1). The samples were loaded on an 1% agarous gel that was cast in TPE buffer (36 mM Tris-HCl, pH 7.8, 1 mM EDTA, 30 mM NaH2PO4) and 0.2 μg/ml Chloroquine. The gel was run in TPE buffer at room temperature at 10 volts for 20 h, destained in water for 15 min, stained in 0.05 μg/ml ethidium bromide for 15 min, and destained again in water for 15 min. The gel was then photographed, scanned by FluoroImager, and analyzed by ImageQuaNT software (Molecular Dynamics).

[4] = test system: human telomerase; test: Telomerase inhibition assay (HeLa cell extract); format: biochemical
Method: The assay used crude HeLa cell extract as the source of human telomerase. It measures the incorporation of ^32P-labeled dGTP into the primer extension of human telomere synthesis (Sun et al., 1998). […] Specific examples of such dual-acting compounds include compounds 2b and 2a (FIG. 3).
The assay was performed by using 5′-end biotinylated d[TTAGGG]3 as the telomere primer. Reaction mixtures (20 μl) containing 5 μl cell lysate (S-100), 50 mM Tris-OAc (pH 8.5), 50 mM K-OAc, 1 mM MgCl2, 5 mM BME, 1 mM spermidine, 1 μM telomere primer, 1.5 μM [α-^32P]-dGTP (800 Ci/mmol), 1 mM dATP, and 1 mM dTTP were incubated at 37° C. for 1 hr, and the reactions were terminated by adding 20 μl of […] streptavidin-coated Dynabeads suspension containing 10 mM Tris-HCl (pH 7.5), 1 mM EDTA, 2M KCl, and a 500 cpm biotinylated internal control. Streptavidin-coated Dynabeads bind selectively to the desired target (5′-biotinylated primer), forming a magnetic bead-targeted complex. The complex was separated from the suspension using a Dynal MPC magnet and washed several times with 2×SSC buffer containing 0.1% SDS to eliminate [α-^32P]-dGTP background. Telomerase reaction products were separated from the magnetic beads by protein denaturation with 5.7 M guanidine-HCl at 90° C. for 30 min. After ethanol precipitation, products were resolved on denaturating 10% polyacrylamide gel.

[5] = test system: G-quadruplex structure formed on the HT4 template; test: DNA synthesis arrest assay (Taq polymerase primer extension); format: biochemical; conditions: 55° C.
Method: FIG. 12A and FIG. 12B. Compound 2b (see FIG. 3) concentration-dependent block of Taq polymerase DNA synthesis by the G-quadruplex structure formed on the HT4 template at 55° C. (A) Autoradiogram of a sequencing gel showing enhanced DNA synthesis pausing at the G-quadruplex site with increasing concentrations of 2b. Arrows indicate the positions of the full length product of DNA synthesis, the G-quadruplex pausing site, and the free primer. (B) Quantitation of the gel using ImageQuaNT software.
This assay is similar to that described by Han and co-workers (Han et al., 1999). Briefly, primers (24 nM) labeled with [γ-^32P] were mixed with template DNA (12 nM)) in a Tris-HCl buffer (10 mM Tris, pH 8.0) containing K^+ (50 mM for the HT4 template) and denatured by heating at 90° C. for 5 min. After cooling down to room temperature, 2b was added at various concentrations and incubated at room temperature for 15 min. The primer extension reactions were initiated by adding dNTP (final concentration 100 μM), MgCl2 (final concentration […]), and Taq DNA polymerase (2.5 U/reaction, Boehringer Mannheim). The products were separated on a 12% polyacrylamide sequencing gel. The gels were then dried and visualized on a PhosphorImager (Molecular Dynamics model 445 S1). […]

[6] = molecular target: T1, human topoisomerase II (Homo sapiens, UniProt P11388); test: Decatenation assay (catenated to decatenated KDNA); format: biochemical; conditions: drug concentration that inhibits 50% of conversion of catenated to decatenated KDNA; read-out: topoisomerase II inhibition IC50
T1 construct: purchased TopoGEN, Inc
Method: Kinetoplast DNA (KDNA), human topoisomerase II (170 KDa form), and DNA Unwinding Kit including supercoiled pHOT1 DNA, relaxed DNA marker, buffers, and human topoisomerase I were purchased from TopoGEN, Inc. Agarose was purchased from Fisher. Quinobenzoxazine A-62176 (S-enantiomer) was provided by Abbott Laboratories or prepared by published procedure (Chu and Maleczka, Jr., 1987).
0.25 μg of KDNA was incubated with various concentrations of the quinobenzoxazines in a 20-μl reaction mixture containing 50 mM Tris-HCl (pH 8), 120 mM KCl, 10 mM MgCl2, and 0.5 mM each of ATP, dithiothreitol, and […] BSA for 10 min. Two units of human topoisomerase II (170 KDa form) were added to the mixture, which was then incubated at 37° C. for 30 min. The reaction was terminated with 0.1 volume of stop buffer (5% sarkosyl, 0.025% bromophenol blue, and 50% glycerol). The decatenation products were analyzed on 1% agarose gels run with 0.5 μg/ml ethidium bromide. The gels were scanned by FluoroImager and analyzed by ImageQuaNT software (Molecular Dynamics).

[7] = test system: Raji lymphoma; test: Cancer cell growth inhibition assay (MTT); format: cell-based, human
Method: as §1

[8] = test system: HT-29 colon; test: Cancer cell growth inhibition assay (MTT); format: cell-based, human
Method: as §1

[9] = test system: MDA-231 breast; test: Cancer cell growth inhibition assay (MTT); format: cell-based, human
Method: as §1

[10] = test system: H226 non-small-cell lung; test: Cancer cell growth inhibition assay (MTT); format: cell-based, human
Method: as §1

[11] = test system: DU-145 prostate; test: Cancer cell growth inhibition assay (MTT); format: cell-based, human
Method: as §1

[12] = test system: prostate cell line DU-145; test: Cytotoxicity of III in combination with Norfloxacin; format: cell-based; conditions: given alone
Method: FIG. 11. Effect of increasing concentrations of Norfloxacin on the cytotoxic effect of QQ58, compound III in FIG. 2 in the prostate cell line DU-145. Compound III was either given alone (●) or in combination with Norfloxacin at concentrations of 2.58 (♦), 19.37 (♦), or 87.33 (▪) μg/ml. For additions of 2.58 and 19.37 μ/ml of Norfloxacin, the IC50 of compound III was increased by approximately 14- and 20-fold.
as §1, with “The resulting purple formazan precipitate was solubilized with 200 μl of 0.4 N HCl in isopropyl alcohol.” left out
In separate studies, the IC50 of III and the IC10, IC20, and IC50 of Norfloxacin were determined for DU-145, a prostate cell line.

[13] = molecular target: T2, topo II-DNA complex (Drosophila melanogaster, UniProt P15348); test: Psorospermin competition study (DNA strand breakage assay); format: biochemical; conditions: 0.5-10 μM drug, psorospermin, topo II present
T2 construct: purchased Amersham
T2 sequence (P15348 1-1447): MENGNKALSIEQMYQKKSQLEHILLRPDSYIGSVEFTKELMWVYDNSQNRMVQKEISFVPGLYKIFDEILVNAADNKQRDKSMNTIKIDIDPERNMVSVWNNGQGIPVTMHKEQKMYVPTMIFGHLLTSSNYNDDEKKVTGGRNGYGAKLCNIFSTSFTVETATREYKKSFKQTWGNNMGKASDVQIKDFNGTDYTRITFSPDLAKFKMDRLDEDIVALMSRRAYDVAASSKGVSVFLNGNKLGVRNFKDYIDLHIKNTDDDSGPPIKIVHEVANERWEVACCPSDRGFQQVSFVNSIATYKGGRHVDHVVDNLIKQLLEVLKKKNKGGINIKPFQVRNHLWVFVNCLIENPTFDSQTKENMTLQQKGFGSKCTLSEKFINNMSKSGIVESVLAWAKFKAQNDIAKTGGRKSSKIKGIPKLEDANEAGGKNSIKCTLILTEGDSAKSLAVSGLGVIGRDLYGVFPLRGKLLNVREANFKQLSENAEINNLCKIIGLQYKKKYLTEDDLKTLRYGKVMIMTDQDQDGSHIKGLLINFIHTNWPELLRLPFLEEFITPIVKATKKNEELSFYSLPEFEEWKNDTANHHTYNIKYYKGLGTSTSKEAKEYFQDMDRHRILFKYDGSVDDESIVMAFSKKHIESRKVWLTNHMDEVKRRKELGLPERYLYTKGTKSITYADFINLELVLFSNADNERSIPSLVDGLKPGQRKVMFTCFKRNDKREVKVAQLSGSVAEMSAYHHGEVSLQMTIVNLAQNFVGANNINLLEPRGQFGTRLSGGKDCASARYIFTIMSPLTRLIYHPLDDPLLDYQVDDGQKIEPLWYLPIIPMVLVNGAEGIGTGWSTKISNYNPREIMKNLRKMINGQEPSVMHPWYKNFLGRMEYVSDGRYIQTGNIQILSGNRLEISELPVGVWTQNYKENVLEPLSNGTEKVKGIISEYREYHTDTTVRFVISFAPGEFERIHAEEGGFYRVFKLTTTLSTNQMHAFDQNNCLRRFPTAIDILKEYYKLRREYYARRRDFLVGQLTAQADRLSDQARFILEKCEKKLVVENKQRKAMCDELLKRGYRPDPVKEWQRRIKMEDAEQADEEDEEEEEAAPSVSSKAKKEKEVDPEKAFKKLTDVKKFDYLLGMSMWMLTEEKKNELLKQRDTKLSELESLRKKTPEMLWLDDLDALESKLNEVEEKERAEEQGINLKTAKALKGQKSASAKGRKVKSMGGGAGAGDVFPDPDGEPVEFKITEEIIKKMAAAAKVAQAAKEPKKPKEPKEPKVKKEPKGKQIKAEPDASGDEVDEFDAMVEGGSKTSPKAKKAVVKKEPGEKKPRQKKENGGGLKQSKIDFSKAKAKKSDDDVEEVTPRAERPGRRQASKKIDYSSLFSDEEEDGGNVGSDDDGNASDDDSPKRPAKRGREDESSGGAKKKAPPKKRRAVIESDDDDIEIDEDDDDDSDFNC
Method: 5′^32P-labeled DNA was incubated with Drosophila topo II in the same buffer as the one in the topo II cleavage reaction in the presence of various amounts of either A-62176, Norfloxacin, or both. The incubation reactions took place at 30° C. for 10 min before 10 μM (final concentration) of psorospermin was added to the mixtures. The reactions were continued for an additional 5 min and then terminated by adding 5 μg of calf thymus DNA, followed by heating at 95° C. for 15 min. In the presence of piperidine, this procedure induces strand breakage at the drug modification sites (Hansen et al., 1996). The samples were subjected to phenol/chloroform extraction followed by ethanol precipitation.
In the presence of topo II, the reactivity of psorospermin is enhanced more than 40-fold with the guanine at the +4′ position at site B in FIG. 7 (Kwok et al., 1998a and 1998b). A DNA strand breakage assay was used to locate the position of alkylation of DNA by the epoxide of psorospermin upon intercalation to the base pairs between the +1 and +2 positions at site B within the topo II-DNA complex (Kwok et al., 1998a). Psorospermin has subsequently been used to probe the binding sites for m-AMSA (Kwok et al., 1998a). In the present study, this same assay was performed to determine the binding site of A-62176 on DNA in the presence of topo II.

[14] = molecular target: T2, topo II-DNA complex; conditions: cited from earlier work

T1 sequence (P11388 whole entry): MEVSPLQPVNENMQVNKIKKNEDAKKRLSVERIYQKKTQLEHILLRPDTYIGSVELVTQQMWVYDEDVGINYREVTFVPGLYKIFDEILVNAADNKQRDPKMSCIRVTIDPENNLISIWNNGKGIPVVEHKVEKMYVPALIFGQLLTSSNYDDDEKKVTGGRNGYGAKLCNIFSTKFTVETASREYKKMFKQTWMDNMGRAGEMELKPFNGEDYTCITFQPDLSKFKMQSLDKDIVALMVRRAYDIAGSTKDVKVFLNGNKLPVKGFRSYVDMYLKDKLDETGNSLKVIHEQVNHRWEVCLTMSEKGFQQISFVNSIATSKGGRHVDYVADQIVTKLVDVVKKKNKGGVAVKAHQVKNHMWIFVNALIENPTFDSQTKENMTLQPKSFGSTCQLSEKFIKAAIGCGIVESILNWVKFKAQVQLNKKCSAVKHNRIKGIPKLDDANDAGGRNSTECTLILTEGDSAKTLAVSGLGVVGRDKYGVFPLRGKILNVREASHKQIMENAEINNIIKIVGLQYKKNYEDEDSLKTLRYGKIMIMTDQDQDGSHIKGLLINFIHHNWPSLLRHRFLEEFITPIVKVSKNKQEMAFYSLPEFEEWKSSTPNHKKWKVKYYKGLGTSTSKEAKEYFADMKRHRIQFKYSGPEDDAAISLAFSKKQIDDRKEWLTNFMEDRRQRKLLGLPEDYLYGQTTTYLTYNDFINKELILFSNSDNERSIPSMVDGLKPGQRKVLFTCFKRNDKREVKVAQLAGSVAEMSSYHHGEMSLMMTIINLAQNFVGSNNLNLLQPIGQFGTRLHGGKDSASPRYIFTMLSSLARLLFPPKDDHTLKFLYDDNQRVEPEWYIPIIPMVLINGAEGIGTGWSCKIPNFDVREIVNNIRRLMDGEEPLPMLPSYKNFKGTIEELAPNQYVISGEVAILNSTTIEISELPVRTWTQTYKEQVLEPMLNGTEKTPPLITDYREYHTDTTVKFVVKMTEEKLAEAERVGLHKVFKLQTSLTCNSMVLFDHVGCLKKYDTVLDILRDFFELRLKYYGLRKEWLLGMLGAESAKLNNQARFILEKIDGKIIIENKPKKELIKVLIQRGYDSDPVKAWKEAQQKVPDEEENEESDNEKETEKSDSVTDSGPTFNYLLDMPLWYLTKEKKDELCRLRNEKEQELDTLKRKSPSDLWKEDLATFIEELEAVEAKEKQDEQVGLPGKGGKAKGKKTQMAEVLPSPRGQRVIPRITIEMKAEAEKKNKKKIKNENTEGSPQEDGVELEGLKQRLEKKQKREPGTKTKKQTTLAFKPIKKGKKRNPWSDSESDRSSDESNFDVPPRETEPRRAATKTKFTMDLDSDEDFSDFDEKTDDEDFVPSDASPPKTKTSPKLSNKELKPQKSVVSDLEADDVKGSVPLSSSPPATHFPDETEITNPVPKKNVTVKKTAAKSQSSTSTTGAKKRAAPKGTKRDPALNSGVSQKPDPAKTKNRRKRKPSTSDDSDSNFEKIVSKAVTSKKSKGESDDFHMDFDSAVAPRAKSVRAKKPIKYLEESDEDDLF

## Cl.NC1CCN(c2c(F)cc3c(=O)c(C(=O)O)cn4c3c2Oc2c-4ccc3ccccc23)C1 (stereo not drawn) [Compound 2b, 1-(3-Aminopyrrolidin-1-yl)-2-fluoro-4-oxo-4H-pyrido[3,2,1-k,l]-benzo[f]-phenoxazine-5-carboxylic Acid]
[1]
  chromosomal aberrations: cause chromosomal aberrations
[2]
  IC50: 20 ± 2 nM
[3]
  DNA unwinding concn: 3 µM
[4]
  telomerase inhibition (qualitative): dual-acting; also recorded: inhibit telomerase
[5]; 100 μM
  primer extension by Taq DNA polymerase: completely inhibited
[5]; increasing concentration
  polymerase pausing at the G-quadruplex site: enhanced pausing
[6]
  IC50: 240 nM
[7]
  IC50: 34 ± 2 nM
[8]
  IC50: 26 ± 1 nM
[9]
  IC50: 5 ± 1 nM
[10]
  IC50: 13 ± 5 nM
[11]
  IC50: 30 ± 10 nM

## CCn1cc(C(=O)O)c(=O)c2cc(F)c(N3CCNCC3)cc21 [Norfloxacin]
[12]
  potency relative to III (fold less potent): at least 1000 fold
[13]
  psorospermin alkylation at site B (competition): no competition

## COc1cc2c(c3oc4c(O)cccc4c(=O)c13)C[C@H]([C@@]1(C)CO1)O2 [Psorospermin]
[14]
  enhancement of reactivity with guanine at +4′ position of site B in the presence of topo II: more than 40 fold

Reference: patent US6528517B1, “Synthesis of quinobenzoxazine analogues with topoisomerase II and quadruplex interactions for use as antineoplastic agents” (Board of Regents, The University of Texas System, priority 1998, dated 2003)
